Patent US20070049564A1 (Wyeth, priority 2005, published 2007)
≈ marks a conversion by molar mass, not a printed value. Read-outs that look alike come from different tables or passages of the source.

How the values were obtained:
E. faecium GC 4556 = assay: MIC, broth microdilution; settings: Enterococcus faecium
E. coli GC 2203 = assay: MIC, broth microdilution; settings: Escherichia coli
E. coli GC 2271 = assay: MIC, broth microdilution; settings: Escherichia coli
Staph. aureus Smith = assay: In vivo activity (oral, iv; ED50) against Staph. aureus Smith in mice
S. aureus GC 6467 = assay: MIC, broth microdilution; settings: Staphylococcus aureus
E. coli GC 2231 = assay: MIC, broth microdilution; settings: Escherichia coli
E. coli GC 2270 = assay: MIC, broth microdilution; settings: Escherichia coli
S. typhimurium GC 2172 = assay: MIC, broth microdilution; settings: Salmonella enterica, TYPHIMURIUM
E. coli GC 3226 = assay: MIC, broth microdilution; settings: Escherichia coli
E. coli GC 4560 = assay: MIC, broth microdilution; settings: Escherichia coli
E. coli GC 4559 = assay: MIC, broth microdilution; settings: Escherichia coli
P. aeruginosa GC 2214 = assay: MIC, broth microdilution; settings: Pseudomonas aeruginosa
E. coli GC 2232 = assay: MIC, broth microdilution; settings: Escherichia coli
S. aureus GC 6335 = assay: MIC, broth microdilution; settings: Staphylococcus aureus
S. agalactiae GC 4564 = assay: MIC, broth microdilution; settings: Streptococcus agalactiae
S. aureus GC 2216 = assay: MIC, broth microdilution; settings: Staphylococcus aureus
E. coli GC 2235 = assay: MIC, broth microdilution; settings: Escherichia coli
E. faecalis GC 2267 = assay: MIC, broth microdilution; settings: Enterococcus faecalis
S. pneumoniae* GC 4465 = assay: MIC, broth microdilution; settings: Streptococcus pneumoniae
E. faecalis GC 2242 = assay: MIC, broth microdilution; settings: Enterococcus faecalis
[1] = read-out: MINIMAL INHIBITORY CONCENTRATION MIC, Human Serum
[2] = read-out: MINIMAL INHIBITORY CONCENTRATION MIC, Mouse Serum
[3] = read-out: MINIMAL INHIBITORY CONCENTRATION MIC, Water

- MIC (E. faecium GC 4556; GC4556, read-out: MINIMAL INHIBITORY CONCENTRATION MIC, Human Serum): 2 µg/mL (≈ 2.69 µM)
- MIC (E. faecium GC 4556; GC4556, read-out: MINIMAL INHIBITORY CONCENTRATION MIC, Mouse Serum): 0.5 µg/mL (≈ 0.672 µM)
- MIC (E. faecium GC 4556; GC4556, read-out: MINIMAL INHIBITORY CONCENTRATION MIC, Water): 2 µg/mL (≈ 2.69 µM)
- MIC (E. coli GC 2203; GC2203, read-out: MINIMAL INHIBITORY CONCENTRATION MIC, Human Serum): 16 µg/mL (≈ 21.5 µM)
- MIC (E. coli GC 2203; GC2203, read-out: MINIMAL INHIBITORY CONCENTRATION MIC, Mouse Serum): 1 µg/mL (≈ 1.34 µM)
- MIC (E. coli GC 2203; GC2203, read-out: MINIMAL INHIBITORY CONCENTRATION MIC, Water): 32 µg/mL (≈ 43 µM)
- MIC (E. coli GC 2271; GC2271, read-out: MINIMAL INHIBITORY CONCENTRATION MIC, Human Serum): 8 µg/mL (≈ 10.8 µM)
- MIC (E. coli GC 2271; GC2271, read-out: MINIMAL INHIBITORY CONCENTRATION MIC, Mouse Serum): 0.5 µg/mL (≈ 0.672 µM)
- MIC (E. coli GC 2271; GC2271, read-out: MINIMAL INHIBITORY CONCENTRATION MIC, Water): 16 µg/mL (≈ 21.5 µM)
- MIC (S. aureus GC 6467; GC6467, read-out: MINIMAL INHIBITORY CONCENTRATION MIC, Human Serum): 1 µg/mL (≈ 1.34 µM)
- MIC (S. aureus GC 6467; GC6467, read-out: MINIMAL INHIBITORY CONCENTRATION MIC, Mouse Serum): 1 µg/mL (≈ 1.34 µM)
- MIC (S. aureus GC 6467; GC6467, read-out: MINIMAL INHIBITORY CONCENTRATION MIC, Water): 2 µg/mL (≈ 2.69 µM)
- MIC (E. coli GC 2231; GC2231, read-out: MINIMAL INHIBITORY CONCENTRATION MIC, Human Serum): 16 µg/mL (≈ 21.5 µM)
- MIC (E. coli GC 2231; GC2231, read-out: MINIMAL INHIBITORY CONCENTRATION MIC, Mouse Serum): 1 µg/mL (≈ 1.34 µM)
- MIC (E. coli GC 2231; GC2231, read-out: MINIMAL INHIBITORY CONCENTRATION MIC, Water): 64 µg/mL (≈ 86 µM)
- MIC (E. coli GC 2270; GC2270, read-out: MINIMAL INHIBITORY CONCENTRATION MIC, Human Serum): 8 µg/mL (≈ 10.8 µM)
- MIC (E. coli GC 2270; GC2270, read-out: MINIMAL INHIBITORY CONCENTRATION MIC, Mouse Serum): 1 µg/mL (≈ 1.34 µM)
- MIC (E. coli GC 2270; GC2270, read-out: MINIMAL INHIBITORY CONCENTRATION MIC, Water): 32 µg/mL (≈ 43 µM)
- MIC (S. typhimurium GC 2172; [1]): 64 µg/mL (≈ 86 µM)
- MIC (S. typhimurium GC 2172; [2]): 4 µg/mL (≈ 5.38 µM)
- MIC (S. typhimurium GC 2172; [3]): > 64 µg/mL
- MIC (E. coli GC 3226; GC3226, read-out: MINIMAL INHIBITORY CONCENTRATION MIC, Human Serum): 16 µg/mL (≈ 21.5 µM)
- MIC (E. coli GC 3226; GC3226, read-out: MINIMAL INHIBITORY CONCENTRATION MIC, Mouse Serum): 1 µg/mL (≈ 1.34 µM)
- MIC (E. coli GC 3226; GC3226, read-out: MINIMAL INHIBITORY CONCENTRATION MIC, Water): 32 µg/mL (≈ 43 µM)
- MIC (E. coli GC 4560; GC4560, read-out: MINIMAL INHIBITORY CONCENTRATION MIC, Human Serum): 2 µg/mL (≈ 2.69 µM)
- MIC (E. coli GC 4560; GC4560, read-out: MINIMAL INHIBITORY CONCENTRATION MIC, Mouse Serum): 0.5 µg/mL (≈ 0.672 µM)
- MIC (E. coli GC 4560; GC4560, read-out: MINIMAL INHIBITORY CONCENTRATION MIC, Water): 2 µg/mL (≈ 2.69 µM)
- MIC (E. coli GC 4559; GC4559, read-out: MINIMAL INHIBITORY CONCENTRATION MIC, Human Serum): 16 µg/mL (≈ 21.5 µM)
- MIC (E. coli GC 4559; GC4559, read-out: MINIMAL INHIBITORY CONCENTRATION MIC, Mouse Serum): 1 µg/mL (≈ 1.34 µM)
- MIC (E. coli GC 4559; GC4559, read-out: MINIMAL INHIBITORY CONCENTRATION MIC, Water): 32 µg/mL (≈ 43 µM)
- MIC (P. aeruginosa GC 2214; GC2214, read-out: MINIMAL INHIBITORY CONCENTRATION MIC, Human Serum): > 64 µg/mL
- MIC (P. aeruginosa GC 2214; GC2214, read-out: MINIMAL INHIBITORY CONCENTRATION MIC, Mouse Serum): 64 µg/mL (≈ 86 µM)
- MIC (P. aeruginosa GC 2214; GC2214, read-out: MINIMAL INHIBITORY CONCENTRATION MIC, Water): > 64 µg/mL
- MIC (E. coli GC 2232; GC2232, read-out: MINIMAL INHIBITORY CONCENTRATION MIC, Human Serum): 8 µg/mL (≈ 10.8 µM)
- MIC (E. coli GC 2232; GC2232, read-out: MINIMAL INHIBITORY CONCENTRATION MIC, Mouse Serum): 0.5 µg/mL (≈ 0.672 µM)
- MIC (E. coli GC 2232; GC2232, read-out: MINIMAL INHIBITORY CONCENTRATION MIC, Water): 32 µg/mL (≈ 43 µM)
- MIC (S. aureus GC 6335; GC6335, read-out: MINIMAL INHIBITORY CONCENTRATION MIC, Human Serum): 0.5 µg/mL (≈ 0.672 µM)
- MIC (S. aureus GC 6335; GC6335, read-out: MINIMAL INHIBITORY CONCENTRATION MIC, Mouse Serum): 0.5 µg/mL (≈ 0.672 µM)
- MIC (S. aureus GC 6335; GC6335, read-out: MINIMAL INHIBITORY CONCENTRATION MIC, Water): 1 µg/mL (≈ 1.34 µM)
- MIC (S. agalactiae GC 4564; GC4564, read-out: MINIMAL INHIBITORY CONCENTRATION MIC, Human Serum): 0.5 µg/mL (≈ 0.672 µM)
- MIC (S. agalactiae GC 4564; GC4564, read-out: MINIMAL INHIBITORY CONCENTRATION MIC, Mouse Serum): < 0.06 µg/mL
- MIC (S. agalactiae GC 4564; GC4564, read-out: MINIMAL INHIBITORY CONCENTRATION MIC, Water): 0.5 µg/mL (≈ 0.672 µM)
- MIC (S. aureus GC 2216; GC2216, read-out: MINIMAL INHIBITORY CONCENTRATION MIC, Human Serum): 0.5 µg/mL (≈ 0.672 µM)
- MIC (S. aureus GC 2216; GC2216, read-out: MINIMAL INHIBITORY CONCENTRATION MIC, Mouse Serum): 0.5 µg/mL (≈ 0.672 µM)
- MIC (S. aureus GC 2216; GC2216, read-out: MINIMAL INHIBITORY CONCENTRATION MIC, Water): 1 µg/mL (≈ 1.34 µM)
- MIC (E. coli GC 2235; GC2235, read-out: MINIMAL INHIBITORY CONCENTRATION MIC, Human Serum): 8 µg/mL (≈ 10.8 µM)
- MIC (E. coli GC 2235; GC2235, read-out: MINIMAL INHIBITORY CONCENTRATION MIC, Mouse Serum): 0.5 µg/mL (≈ 0.672 µM)
- MIC (E. coli GC 2235; GC2235, read-out: MINIMAL INHIBITORY CONCENTRATION MIC, Water): 32 µg/mL (≈ 43 µM)
- MIC (E. faecalis GC 2267; GC2267, read-out: MINIMAL INHIBITORY CONCENTRATION MIC, Human Serum): 2 µg/mL (≈ 2.69 µM)
- MIC (E. faecalis GC 2267; GC2267, read-out: MINIMAL INHIBITORY CONCENTRATION MIC, Mouse Serum): 0.5 µg/mL (≈ 0.672 µM)
- MIC (E. faecalis GC 2267; GC2267, read-out: MINIMAL INHIBITORY CONCENTRATION MIC, Water): 4 µg/mL (≈ 5.38 µM)
- MIC (S. pneumoniae* GC 4465; [1]): 0.25 µg/mL (≈ 0.336 µM)
- MIC (S. pneumoniae* GC 4465; [2]): 0.12 µg/mL (≈ 0.161 µM)
- MIC (S. pneumoniae* GC 4465; [3]): 0.12 µg/mL (≈ 0.161 µM)
- MIC (E. faecalis GC 2242; GC2242, read-out: MINIMAL INHIBITORY CONCENTRATION MIC, Human Serum): 2 µg/mL (≈ 2.69 µM)
- MIC (E. faecalis GC 2242; GC2242, read-out: MINIMAL INHIBITORY CONCENTRATION MIC, Mouse Serum): 0.5 µg/mL (≈ 0.672 µM)
- MIC (E. faecalis GC 2242; GC2242, read-out: MINIMAL INHIBITORY CONCENTRATION MIC, Water): 2 µg/mL (≈ 2.69 µM)
Compound: CC(C)CC(=O)OCOC(=O)N(CC(=O)Nc1cc(N(C)C)c2c(c1O)C(=O)C1=C(O)[C@]3(O)C(=O)C(C(N)=O)=C(O)[C@@H](N(C)C)[C@@H]3C[C@@H]1C2)C(C)(C)C [Example 53, ({[(2-{[(5aR,6aS,7S,10aS)-9-(aminocarbonyl)-4,7-bis(dimethylamino)-1,8,10a,11-tetrahydroxy-10,12-dioxo-5,5a,6,6a,7,10,10a,12-octahydrotetracen-2-yl]amino}-2-oxoethyl)(tert-butyl)amino]carbonyl}oxy)methyl 3-methylbutanoate]
- ED50 (Staph. aureus Smith; Staphylococcus aureus, in Mus musculus, iv, read-out: ED50 SIV (Staph aureus Smith)): 0.73 mg/kg
- ED50 (Staph. aureus Smith; Staphylococcus aureus, in Mus musculus, po, read-out: ED50 SOD (Staph aureus Smith)): 5.08 mg/kg
- ED50 (Staph. aureus Smith; Staphylococcus aureus, in Mus musculus, po, read-out: ED50 Staph Smith SOD): 5.08 mg/kg
- ED50 (Staph. aureus Smith; iv, read-out: ED50 Staph Smith SIV): 0.73 mg/kg
